Test results reported in publication PMC2833264 (Photosynthesis research, 2009).

Molecular target: T1, C. reinhardtii nitrite reductase (Chlamydomonas reinhardtii, UniProt Q9ZR67)
T1 sequence (Q9ZR67 29-589): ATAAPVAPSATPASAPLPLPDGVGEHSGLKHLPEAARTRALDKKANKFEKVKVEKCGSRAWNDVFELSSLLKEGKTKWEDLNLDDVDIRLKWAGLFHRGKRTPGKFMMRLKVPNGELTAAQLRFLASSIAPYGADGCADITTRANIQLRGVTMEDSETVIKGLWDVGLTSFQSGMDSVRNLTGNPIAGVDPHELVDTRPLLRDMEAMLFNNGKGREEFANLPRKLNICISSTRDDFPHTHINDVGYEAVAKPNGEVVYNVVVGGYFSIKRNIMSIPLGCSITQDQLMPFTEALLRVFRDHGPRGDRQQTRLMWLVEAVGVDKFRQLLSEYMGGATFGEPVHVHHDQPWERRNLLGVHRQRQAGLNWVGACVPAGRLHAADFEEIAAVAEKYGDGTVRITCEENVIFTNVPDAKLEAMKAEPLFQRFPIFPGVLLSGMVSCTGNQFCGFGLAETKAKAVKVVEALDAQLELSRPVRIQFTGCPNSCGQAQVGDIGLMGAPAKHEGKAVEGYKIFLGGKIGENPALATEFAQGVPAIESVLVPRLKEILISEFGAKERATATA
Experiment: spectral perturbation titration
Format: binding

O=NO [nitrite] showed a Kd of 50 µM.
